In patent US20110039825A1, “LIGANDS OF ALPHA-ADRENOCEPTORS, DOPAMINE, HISTAMINE, IMIDAZOLINE AND SEROTONIN RECEPTORS AND THEIR USE” (Alla Chem, LLC, priority 2007, published 2011):

Legend:
human α1D receptor = target: T1, human α1D receptor (Homo sapiens, UniProt P25100); test: radioligand binding to adrenergic receptor α1D ([3H] Prazosin)
T1 construct: expressed in transfected cells; host or cells: HEK-293
T1 sequence (P25100 1-572): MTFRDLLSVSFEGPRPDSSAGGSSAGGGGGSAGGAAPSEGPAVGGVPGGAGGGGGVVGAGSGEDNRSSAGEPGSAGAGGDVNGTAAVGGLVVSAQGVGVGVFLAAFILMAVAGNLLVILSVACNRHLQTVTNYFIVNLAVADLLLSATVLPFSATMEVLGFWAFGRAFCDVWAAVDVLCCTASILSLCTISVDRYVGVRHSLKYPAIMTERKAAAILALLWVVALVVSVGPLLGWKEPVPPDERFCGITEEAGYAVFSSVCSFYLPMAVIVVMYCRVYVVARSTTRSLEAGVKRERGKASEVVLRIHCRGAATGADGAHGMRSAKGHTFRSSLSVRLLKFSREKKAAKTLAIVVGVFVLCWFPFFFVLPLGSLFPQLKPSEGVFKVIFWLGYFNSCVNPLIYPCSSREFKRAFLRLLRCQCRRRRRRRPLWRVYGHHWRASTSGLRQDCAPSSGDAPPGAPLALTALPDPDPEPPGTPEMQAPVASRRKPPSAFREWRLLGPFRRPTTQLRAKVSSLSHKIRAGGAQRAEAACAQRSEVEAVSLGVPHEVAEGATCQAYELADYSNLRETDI
Source text: 6-C. […] For this purpose sDNA of human α1D receptor is expressed in HEK-293 cells, as it was described in [T L Theroux, T A Esbenshade, R D Peavy and K P Minneman. Coupling efficiencies of human alpha 1-adrenergic receptor subtypes: titration of receptor density and responsiveness with inducible and repressible expression vectors. Mol. Pharmacol.; 50: 1376-1387, 1996]. […] Prazosin is used as positive control.

human D1 receptor = target: T2, human D1 receptor (Homo sapiens, UniProt P21728); test: radioligand binding to dopamine receptor D1 ([3H] SCH-23390); conditions: for Dopamine receptor D1, % inhibition: 10 μM ligand
T2 construct: expressed in transfected cells; host or cells: CHO
T2 sequence (P21728 whole entry): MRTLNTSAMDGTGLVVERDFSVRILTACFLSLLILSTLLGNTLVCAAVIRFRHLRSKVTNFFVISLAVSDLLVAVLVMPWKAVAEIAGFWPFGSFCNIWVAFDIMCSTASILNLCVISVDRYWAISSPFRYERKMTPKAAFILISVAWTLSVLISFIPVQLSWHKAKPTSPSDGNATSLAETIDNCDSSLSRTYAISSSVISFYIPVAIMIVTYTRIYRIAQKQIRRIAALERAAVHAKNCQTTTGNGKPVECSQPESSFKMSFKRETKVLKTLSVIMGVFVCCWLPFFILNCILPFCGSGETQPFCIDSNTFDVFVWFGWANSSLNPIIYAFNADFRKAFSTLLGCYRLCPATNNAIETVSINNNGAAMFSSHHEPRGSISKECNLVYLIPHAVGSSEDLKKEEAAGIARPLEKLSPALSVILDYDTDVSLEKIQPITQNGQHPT
Source text: For this purpose sDNA of human D1 receptor is expressed in CHO cells, as it was described in [Dearry A, Gingrich J A, Falardeau P, Fremeau R T Jr, Bates M D and Caron M G. Molecular cloning and expression of the gene for a human D1 dopamine receptor. Nature. […] Nature.

human D3 receptor = target: T3, human D3 receptor (Homo sapiens, UniProt P35462); test: radioligand binding to dopamine receptor D3 ([3H] Spiperone); conditions: for Dopamine receptor D3, % inhibition: 10 μM ligand
T3 construct: expressed in transfected cells; host or cells: CHO
T3 sequence (P35462 whole entry): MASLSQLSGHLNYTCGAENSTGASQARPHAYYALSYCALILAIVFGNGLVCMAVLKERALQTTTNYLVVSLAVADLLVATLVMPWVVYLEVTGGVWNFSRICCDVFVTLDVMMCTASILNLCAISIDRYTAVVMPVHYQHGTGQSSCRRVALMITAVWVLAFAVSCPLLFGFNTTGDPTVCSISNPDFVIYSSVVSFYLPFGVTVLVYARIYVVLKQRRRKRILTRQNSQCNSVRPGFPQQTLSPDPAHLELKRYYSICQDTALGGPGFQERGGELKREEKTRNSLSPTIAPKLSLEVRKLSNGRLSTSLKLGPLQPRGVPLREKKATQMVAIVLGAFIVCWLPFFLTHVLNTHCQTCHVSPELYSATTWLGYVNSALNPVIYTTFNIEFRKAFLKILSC
Source text: For this purpose sDNA of human D3 receptor is expressed in CHO cells, as it was described in [Sokoloff P, Giros B, Martres M-P, Bouthenet M-L and Schwartz J-C. Molecular cloning and characterization of novel dopamine receptor (D3) as target for neuroleptics. Nature. […] Molecular cloning and characterization of novel dopamine receptor (D3) as target for neuroleptics. Nature. […] Spiperone is used as positive control.

human H1 receptor = target: T4, human H1 receptor (Homo sapiens, UniProt P35367); test: radioligand binding to histamine receptor H1 ([3H] Pyrilamine); conditions: for Histamine receptor H1, % inhibition: 10 μM ligand
T4 construct: expressed in transfected cells; host or cells: CHO-K1
T4 sequence (P35367 whole entry): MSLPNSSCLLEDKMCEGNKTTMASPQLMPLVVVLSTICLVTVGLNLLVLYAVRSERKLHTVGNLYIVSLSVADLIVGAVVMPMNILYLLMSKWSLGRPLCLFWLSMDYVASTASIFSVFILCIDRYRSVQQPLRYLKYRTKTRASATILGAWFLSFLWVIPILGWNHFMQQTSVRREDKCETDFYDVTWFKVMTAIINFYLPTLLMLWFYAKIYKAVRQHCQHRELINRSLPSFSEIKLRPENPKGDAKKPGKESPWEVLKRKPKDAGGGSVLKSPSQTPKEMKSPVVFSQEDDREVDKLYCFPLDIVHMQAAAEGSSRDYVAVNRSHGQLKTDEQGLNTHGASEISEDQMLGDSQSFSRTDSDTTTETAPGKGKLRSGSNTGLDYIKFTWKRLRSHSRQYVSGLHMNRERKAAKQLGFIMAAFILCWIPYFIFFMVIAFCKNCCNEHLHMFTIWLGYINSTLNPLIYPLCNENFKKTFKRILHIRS
Source text: Biochem Biophys Res Comm. 197(3): 1601-1608, 1993]. […] Biochem Biophys Res Comm. 197(3): 1601-1608, 1993].
Pyrilamine is used as positive control.

human H2 receptor = target: T5, human H2 receptor (Homo sapiens, UniProt P25021); test: radioligand binding to histamine receptor H2 ([125I] Aminopotentidine); conditions: 10 μM ligand
T5 construct: expressed in transfected cells; host or cells: CHO-K1
T5 sequence (P25021 whole entry): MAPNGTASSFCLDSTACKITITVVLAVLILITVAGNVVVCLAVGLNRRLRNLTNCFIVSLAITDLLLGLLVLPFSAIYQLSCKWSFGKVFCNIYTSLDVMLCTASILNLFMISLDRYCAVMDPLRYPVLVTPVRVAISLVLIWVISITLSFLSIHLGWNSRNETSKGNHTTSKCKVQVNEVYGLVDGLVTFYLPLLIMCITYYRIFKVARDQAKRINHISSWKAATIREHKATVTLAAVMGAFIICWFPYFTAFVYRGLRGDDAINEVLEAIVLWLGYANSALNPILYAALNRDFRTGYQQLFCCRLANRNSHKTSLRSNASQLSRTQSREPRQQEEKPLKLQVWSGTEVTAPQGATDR
Source text: Proc Natl Acad Sci USA. 87(5): 1658-1662, 1990]. […] Proc Natl Acad Sci USA. 87(5): 1658-1662, 1990]. […] Tiotidine is used as positive control.

[1] = target: T6, recombinant human 5-HT2C receptor (Homo sapiens, UniProt P28335); test: radioligand binding to serotonin receptor 5-HT2C ([3H] Mesulergine)
T6 construct: expressed in transfected cells; host or cells: CHO-K1
T6 sequence (P28335 33-458): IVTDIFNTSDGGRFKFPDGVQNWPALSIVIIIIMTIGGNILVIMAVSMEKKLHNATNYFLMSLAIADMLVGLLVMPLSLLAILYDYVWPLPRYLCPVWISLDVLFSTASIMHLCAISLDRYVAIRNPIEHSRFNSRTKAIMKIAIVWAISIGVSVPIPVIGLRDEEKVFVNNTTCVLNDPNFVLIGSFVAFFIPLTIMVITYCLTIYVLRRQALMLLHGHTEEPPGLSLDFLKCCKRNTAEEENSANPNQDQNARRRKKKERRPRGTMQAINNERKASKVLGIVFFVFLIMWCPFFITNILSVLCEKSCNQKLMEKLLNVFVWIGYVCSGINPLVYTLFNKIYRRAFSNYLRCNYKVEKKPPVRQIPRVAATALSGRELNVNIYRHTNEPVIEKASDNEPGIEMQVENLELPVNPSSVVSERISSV
Source text: J. Neurochem. 69: 1449-1458, 1997]. […] SB242084 is used as positive control.

[2] = target: T7, recombinant human 5-HT2B receptor (Homo sapiens, UniProt P41595); test: radioligand binding to serotonin receptor 5-HT2B ([3H] Lysergic acid diethylamide)
T7 construct: expressed in transfected cells; host or cells: CHO-K1
T7 sequence (P41595 whole entry): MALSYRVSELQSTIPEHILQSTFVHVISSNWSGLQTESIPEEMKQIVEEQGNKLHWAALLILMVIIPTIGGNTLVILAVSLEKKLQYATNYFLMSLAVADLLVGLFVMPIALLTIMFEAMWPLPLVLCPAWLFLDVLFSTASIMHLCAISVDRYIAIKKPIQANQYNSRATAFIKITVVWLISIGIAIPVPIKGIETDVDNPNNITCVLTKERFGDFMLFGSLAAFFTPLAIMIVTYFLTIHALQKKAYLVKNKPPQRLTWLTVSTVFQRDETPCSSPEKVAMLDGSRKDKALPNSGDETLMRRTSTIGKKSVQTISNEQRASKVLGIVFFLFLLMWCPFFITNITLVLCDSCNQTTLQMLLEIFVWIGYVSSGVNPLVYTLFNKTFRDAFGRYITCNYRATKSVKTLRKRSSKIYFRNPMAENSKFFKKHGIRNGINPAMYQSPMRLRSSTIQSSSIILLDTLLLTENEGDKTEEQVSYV
Method: Screening of the disclosed compounds for potential ability to interact with serotonin receptor 5-HT2A is carried out by method of radioligand binding. For this purpose membrane species are prepared from CHO-K1 cells comprising recombinant human 5-HT2B receptor by homogenization of recombinant cells in glass homogenizer with the subsequent separation of plasmatic membranes from cell nuclei, mitochondrias and cell wreckages by differential centrifugation. […] After incubation the samples are filtered in vacuo on glass-microfiber filters G/F (Millipor, USA), filters are washed three times with cold solution of medium and radioactivity is measured by scintillation counter MicroBeta 340 (Perkin Elmer, USA). […] Ketanserin is used as positive control. The tested compounds' binding to the receptor is determined by their ability to displace the radioligand and is expressed in percent of displacement (% I). Values of % I are calculated according to the following equation:
wherein: TA—is the overall radioactivity in the presence of radioligand only, CA—is the radioactivity in the presence of radioligand and tested compound and NA—is the radioactivity in the presence of radioligand and Serotonin (10 μM).

imidazoline receptor I2 = test: radioligand binding to imidazoline receptor I2 ([3H] Idazoxan); design: species or system rat
Method: Determination of investigated compounds' binding to imidazoline I2 receptor is carried out according to the method described in [Brown C M, MacKinnon A C, McGrath J C, Spedding M and Kilpatrick A T, a2-Adrenoceptor subtypes and imidazoline-like binding in the rat brain. Br J. Pharmacol. 99:803-809, 1990]. […] Idazoxan is used as positive control.

recombinant human 5-HT1A = target: T8, recombinant human 5-HT1A (Homo sapiens, UniProt P08908); test: radioligand binding to serotonin receptor 5-HT1A ([3H] 8-OH-DPAT)
T8 construct: expressed in transfected cells; host or cells: CHO
T8 sequence (P08908 1-422): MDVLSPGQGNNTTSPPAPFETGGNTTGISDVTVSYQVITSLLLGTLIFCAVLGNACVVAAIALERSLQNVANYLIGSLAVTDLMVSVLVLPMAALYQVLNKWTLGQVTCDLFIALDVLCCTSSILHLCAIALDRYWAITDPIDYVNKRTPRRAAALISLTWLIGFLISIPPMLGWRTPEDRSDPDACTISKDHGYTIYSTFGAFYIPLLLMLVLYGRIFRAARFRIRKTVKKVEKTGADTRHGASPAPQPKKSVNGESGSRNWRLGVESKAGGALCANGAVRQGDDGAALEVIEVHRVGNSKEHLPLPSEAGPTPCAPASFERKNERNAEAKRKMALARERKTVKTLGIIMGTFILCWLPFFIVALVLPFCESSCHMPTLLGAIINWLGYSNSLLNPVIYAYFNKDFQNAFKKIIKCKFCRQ
Source text: J Pharmacol Exp Ther. 306(1): 301-309, 2003]. […] Metergoline is used as positive control.

Cc1ccc2c(c1)[C@H]1CN(C)CCC[C@@H]1N2CCc1cccnc1 [1.6.2(10)•3HCl]
α-Adrenoceptor α1D, % inhibition (human α1D receptor; 10 μM ligand): 86%
Dopamine receptor D1, % inhibition (human D1 receptor): 88%
Dopamine receptor D3, % inhibition (human D3 receptor): 25%
Histamine receptor H1, % inhibition (human H1 receptor): 103%
Histamine receptor H2, % inhibition (human H2 receptor): 69%
inhibition at 1 µM ([1]; ligand concentration 1 μM): 99%

CN1CCc2c(c3ccccc3n2Cc2ccccc2)C1 [1.9(1)•½NDSA, bis-(5-benzyl-2-methyl-2,3,4,5-tetrahydro-1H-pyrido[4,3-b]indole) naphtalene-1,5-disulfonate]
IC50 (human α1D receptor): 1330 nM
Ki (human α1D receptor): 656 nM
nH α1D (human α1D receptor): 1.05
α-Adrenoceptor α1D, % inhibition (human α1D receptor; 3 μM ligand): 70(3 μM) %
nH D1 (human D1 receptor): 1.38
Dopamine receptor D1, % inhibition (human D1 receptor): 77%
IC50 (human D3 receptor): 1360 nM
Ki (human D3 receptor): 462 nM
nH D3 (human D3 receptor): 1.04
Dopamine receptor D3, % inhibition (human D3 receptor): 65%
IC50 (human H1 receptor): 3.97 nM
Ki (human H1 receptor): 1.9 nM
nH H1 (human H1 receptor): 0.789
nH 5-HT2B [2]: 0.552
IC50 [1]: 13.5 nM
Ki [1]: 7.08 nM
nH 5-HT2C [1]: 0.987
imidazoline I2 receptor % inhibition (imidazoline receptor I2; 0.3 μM ligand): 87 (0.3 μM) %

Cc1ccc2c(c1)c1c(n2CCc2ccccn2)CCN(C)C1.Cl.Cl [1.1.2(2-3)•2HCl]
IC50 (human α1D receptor): 282 nM
Ki (human α1D receptor): 139 nM
Histamine receptor H1, % inhibition (human H1 receptor): 98%
inhibition at 1 µM (recombinant human 5-HT1A; ligand concentration 1 μM): 53%
nH 5-HT2B [2]: 0.913
IC50 ([2]; read-out: IC50 5-HT2B): 1020 nM
Ki ([2]; read-out: Ki 5-HT2B): 647 nM
imidazoline I2 receptor % inhibition (imidazoline receptor I2; 10 μM ligand): 88%

Cc1ccc2c(c1)[C@@H]1CN(C)CCC[C@@H]1N2CCc1ccc(C)nc1.Cl.Cl.Cl (relative stereo) [1.6.1(2)•3HCl]
α-Adrenoceptor α1D, % inhibition (human α1D receptor; 10 μM ligand): 87%
Dopamine receptor D1, % inhibition (human D1 receptor): 55%
Dopamine receptor D3, % inhibition (human D3 receptor): 41%
Histamine receptor H1, % inhibition (human H1 receptor): 102%
Histamine receptor H2, % inhibition (human H2 receptor): 66%
5-HT1A % inhibition (recombinant human 5-HT1A; 10 μM ligand): −9%
imidazoline I2 receptor % inhibition (imidazoline receptor I2; 10 μM ligand): 80%
